Results reported in paper PMC3814616, “BRAF inhibitors suppress apoptosis through off-target inhibition of JNK signaling” (eLife, 2013).

Columns and labels:
Test in all cases: Quantitative competitive binding assay (KINOMEscan)
TAOK1 = biological target: T1, TAOK1 (Homo sapiens, UniProt Q7L7X3); settings: for remaining binding at 0.2 µM: read-out: Percent control (200 nM); for remaining binding at 1 µM: read-out: Percent control (1000 nM); for remaining binding at 10 µM: read-out: Percent control (10 μM)
T1 construct: purchased KINOMEscan (DiscoveRx), San Diego, CA
T1 sequence (Q7L7X3 1-1001): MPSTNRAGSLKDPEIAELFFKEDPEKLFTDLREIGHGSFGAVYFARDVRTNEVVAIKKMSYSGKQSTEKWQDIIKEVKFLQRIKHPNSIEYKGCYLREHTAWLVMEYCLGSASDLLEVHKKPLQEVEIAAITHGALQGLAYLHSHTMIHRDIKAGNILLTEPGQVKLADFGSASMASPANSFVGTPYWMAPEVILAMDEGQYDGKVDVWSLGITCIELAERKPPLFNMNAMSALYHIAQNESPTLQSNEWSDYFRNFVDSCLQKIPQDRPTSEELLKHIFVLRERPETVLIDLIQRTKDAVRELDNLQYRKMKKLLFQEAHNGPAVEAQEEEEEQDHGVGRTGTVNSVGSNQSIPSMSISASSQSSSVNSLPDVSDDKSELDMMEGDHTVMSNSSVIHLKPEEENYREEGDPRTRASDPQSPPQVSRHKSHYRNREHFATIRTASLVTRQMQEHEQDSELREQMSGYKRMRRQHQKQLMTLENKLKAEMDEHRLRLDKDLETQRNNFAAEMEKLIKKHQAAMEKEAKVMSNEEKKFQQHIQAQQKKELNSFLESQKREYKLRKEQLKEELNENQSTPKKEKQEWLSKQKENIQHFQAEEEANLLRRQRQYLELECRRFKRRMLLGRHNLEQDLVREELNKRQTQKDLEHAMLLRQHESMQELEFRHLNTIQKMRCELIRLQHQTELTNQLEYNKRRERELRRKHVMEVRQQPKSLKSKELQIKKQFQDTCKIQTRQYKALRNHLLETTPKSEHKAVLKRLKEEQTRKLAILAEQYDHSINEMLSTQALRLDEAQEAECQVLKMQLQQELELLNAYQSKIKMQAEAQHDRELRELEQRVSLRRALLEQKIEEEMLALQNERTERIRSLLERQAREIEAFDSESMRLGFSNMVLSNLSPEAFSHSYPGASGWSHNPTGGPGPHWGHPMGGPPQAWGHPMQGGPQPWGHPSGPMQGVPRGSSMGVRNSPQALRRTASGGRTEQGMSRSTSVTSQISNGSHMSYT

MAP3K15 = biological target: T2, MAP3K15 (Homo sapiens, UniProt Q6ZN16); settings: for remaining binding at 0.05 µM: read-out: Percent control (50 nM); for remaining binding at 0.2 µM: read-out: Percent control (200 nM); for remaining binding at 1 µM: read-out: Percent control (1000 nM); for remaining binding at 10 µM: read-out: Percent control (10 μM)
T2 construct: purchased KINOMEscan (DiscoveRx), San Diego, CA
T2 sequence (Q6ZN16 1-1313): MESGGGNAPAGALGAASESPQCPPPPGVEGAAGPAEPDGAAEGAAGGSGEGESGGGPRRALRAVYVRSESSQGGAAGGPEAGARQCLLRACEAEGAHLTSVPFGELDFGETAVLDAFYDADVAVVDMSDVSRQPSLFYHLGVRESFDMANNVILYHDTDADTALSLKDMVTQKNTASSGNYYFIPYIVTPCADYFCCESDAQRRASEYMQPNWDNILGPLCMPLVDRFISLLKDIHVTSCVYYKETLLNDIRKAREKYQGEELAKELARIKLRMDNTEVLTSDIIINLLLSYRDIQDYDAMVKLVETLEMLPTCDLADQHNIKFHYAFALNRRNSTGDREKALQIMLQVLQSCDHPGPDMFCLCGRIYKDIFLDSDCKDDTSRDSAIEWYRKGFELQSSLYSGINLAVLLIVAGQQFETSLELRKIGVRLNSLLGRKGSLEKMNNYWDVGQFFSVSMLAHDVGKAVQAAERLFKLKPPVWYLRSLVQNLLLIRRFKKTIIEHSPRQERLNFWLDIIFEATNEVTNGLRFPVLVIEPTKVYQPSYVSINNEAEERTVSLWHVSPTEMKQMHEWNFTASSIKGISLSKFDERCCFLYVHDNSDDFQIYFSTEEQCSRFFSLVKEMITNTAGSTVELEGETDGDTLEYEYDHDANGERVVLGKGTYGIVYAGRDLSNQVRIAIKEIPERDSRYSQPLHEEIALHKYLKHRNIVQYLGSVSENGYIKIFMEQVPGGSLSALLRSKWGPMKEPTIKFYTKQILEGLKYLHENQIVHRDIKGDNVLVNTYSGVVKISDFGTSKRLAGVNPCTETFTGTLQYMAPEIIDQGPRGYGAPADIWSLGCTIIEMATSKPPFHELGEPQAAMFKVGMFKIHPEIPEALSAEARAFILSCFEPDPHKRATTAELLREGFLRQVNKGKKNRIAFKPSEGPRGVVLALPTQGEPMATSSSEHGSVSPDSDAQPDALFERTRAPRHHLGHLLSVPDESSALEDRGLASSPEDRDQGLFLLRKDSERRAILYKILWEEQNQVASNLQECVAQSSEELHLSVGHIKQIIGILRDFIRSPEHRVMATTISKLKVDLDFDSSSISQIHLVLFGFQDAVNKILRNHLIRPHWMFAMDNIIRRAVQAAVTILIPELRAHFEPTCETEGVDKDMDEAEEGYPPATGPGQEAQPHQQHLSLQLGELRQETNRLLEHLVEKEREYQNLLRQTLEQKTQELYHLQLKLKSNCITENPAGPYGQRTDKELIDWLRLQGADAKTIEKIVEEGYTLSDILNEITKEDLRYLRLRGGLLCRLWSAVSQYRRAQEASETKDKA

HPK1 (MAP4K1) = biological target: T3, HPK1 (MAP4K1) (Homo sapiens, UniProt Q92918); settings: for remaining binding at 0.05 µM: read-out: Percent control (50 nM); for remaining binding at 0.2 µM: read-out: Percent control (200 nM); for remaining binding at 1 µM: read-out: Percent control (1000 nM); for remaining binding at 10 µM: read-out: Percent control (10 μM)
T3 construct: purchased KINOMEscan (DiscoveRx), San Diego, CA
T3 sequence (Q92918 whole entry): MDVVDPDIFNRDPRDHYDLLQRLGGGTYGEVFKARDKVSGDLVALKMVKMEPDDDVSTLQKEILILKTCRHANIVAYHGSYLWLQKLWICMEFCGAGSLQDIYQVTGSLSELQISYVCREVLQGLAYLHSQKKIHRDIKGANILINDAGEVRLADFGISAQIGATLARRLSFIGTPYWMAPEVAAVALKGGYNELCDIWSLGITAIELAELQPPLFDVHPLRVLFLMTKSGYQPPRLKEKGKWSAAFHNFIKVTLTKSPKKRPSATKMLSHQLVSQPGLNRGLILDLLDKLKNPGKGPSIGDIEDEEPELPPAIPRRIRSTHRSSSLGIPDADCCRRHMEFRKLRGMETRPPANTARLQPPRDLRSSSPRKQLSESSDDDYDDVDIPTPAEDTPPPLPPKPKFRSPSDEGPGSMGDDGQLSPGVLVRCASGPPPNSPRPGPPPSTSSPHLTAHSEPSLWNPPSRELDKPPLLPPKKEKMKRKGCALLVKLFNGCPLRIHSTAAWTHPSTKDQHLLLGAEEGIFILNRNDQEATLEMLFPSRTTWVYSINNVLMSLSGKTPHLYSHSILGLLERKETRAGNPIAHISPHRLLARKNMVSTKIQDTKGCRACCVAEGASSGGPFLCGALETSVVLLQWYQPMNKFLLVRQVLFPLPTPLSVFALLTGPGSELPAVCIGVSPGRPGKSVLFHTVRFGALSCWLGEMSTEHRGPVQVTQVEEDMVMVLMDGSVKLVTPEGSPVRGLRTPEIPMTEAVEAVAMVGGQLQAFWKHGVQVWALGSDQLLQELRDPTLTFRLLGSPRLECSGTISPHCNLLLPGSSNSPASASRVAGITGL

TAK1 (MAP3K7) = biological target: T4, TAK1 (MAP3K7) (Homo sapiens, UniProt O43318); settings: for remaining binding at 0.05 µM: read-out: Percent control (50 nM); for remaining binding at 0.2 µM: read-out: Percent control (200 nM); for remaining binding at 1 µM: read-out: Percent control (1000 nM); for remaining binding at 10 µM: read-out: Percent control (10 μM)
T4 construct: purchased KINOMEscan (DiscoveRx), San Diego, CA
T4 sequence (O43318 whole entry): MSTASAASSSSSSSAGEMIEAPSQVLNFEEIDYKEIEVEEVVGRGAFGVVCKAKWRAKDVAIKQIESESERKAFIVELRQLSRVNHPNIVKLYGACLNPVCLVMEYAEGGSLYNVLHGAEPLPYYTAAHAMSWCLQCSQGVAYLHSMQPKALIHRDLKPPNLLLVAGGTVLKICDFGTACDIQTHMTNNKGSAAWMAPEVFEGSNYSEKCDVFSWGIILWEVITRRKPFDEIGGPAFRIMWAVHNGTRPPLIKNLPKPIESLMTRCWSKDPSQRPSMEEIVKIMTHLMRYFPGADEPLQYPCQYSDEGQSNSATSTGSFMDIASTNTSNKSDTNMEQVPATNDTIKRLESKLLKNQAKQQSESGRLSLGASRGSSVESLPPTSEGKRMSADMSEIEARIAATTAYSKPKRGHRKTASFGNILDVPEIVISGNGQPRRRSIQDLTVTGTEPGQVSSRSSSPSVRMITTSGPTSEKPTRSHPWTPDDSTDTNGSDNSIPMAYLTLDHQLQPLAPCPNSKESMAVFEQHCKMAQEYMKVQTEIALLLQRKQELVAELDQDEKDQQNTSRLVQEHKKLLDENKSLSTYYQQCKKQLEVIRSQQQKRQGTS

ZAK = biological target: T5, ZAK (Homo sapiens, UniProt Q9NYL2); settings: for remaining binding at 0.05 µM: read-out: Percent control (50 nM); for remaining binding at 0.2 µM: read-out: Percent control (200 nM); for remaining binding at 1 µM: read-out: Percent control (1000 nM); for remaining binding at 10 µM: read-out: Percent control (10 μM)
T5 construct: purchased KINOMEscan (DiscoveRx), San Diego, CA
T5 sequence (Q9NYL2 whole entry): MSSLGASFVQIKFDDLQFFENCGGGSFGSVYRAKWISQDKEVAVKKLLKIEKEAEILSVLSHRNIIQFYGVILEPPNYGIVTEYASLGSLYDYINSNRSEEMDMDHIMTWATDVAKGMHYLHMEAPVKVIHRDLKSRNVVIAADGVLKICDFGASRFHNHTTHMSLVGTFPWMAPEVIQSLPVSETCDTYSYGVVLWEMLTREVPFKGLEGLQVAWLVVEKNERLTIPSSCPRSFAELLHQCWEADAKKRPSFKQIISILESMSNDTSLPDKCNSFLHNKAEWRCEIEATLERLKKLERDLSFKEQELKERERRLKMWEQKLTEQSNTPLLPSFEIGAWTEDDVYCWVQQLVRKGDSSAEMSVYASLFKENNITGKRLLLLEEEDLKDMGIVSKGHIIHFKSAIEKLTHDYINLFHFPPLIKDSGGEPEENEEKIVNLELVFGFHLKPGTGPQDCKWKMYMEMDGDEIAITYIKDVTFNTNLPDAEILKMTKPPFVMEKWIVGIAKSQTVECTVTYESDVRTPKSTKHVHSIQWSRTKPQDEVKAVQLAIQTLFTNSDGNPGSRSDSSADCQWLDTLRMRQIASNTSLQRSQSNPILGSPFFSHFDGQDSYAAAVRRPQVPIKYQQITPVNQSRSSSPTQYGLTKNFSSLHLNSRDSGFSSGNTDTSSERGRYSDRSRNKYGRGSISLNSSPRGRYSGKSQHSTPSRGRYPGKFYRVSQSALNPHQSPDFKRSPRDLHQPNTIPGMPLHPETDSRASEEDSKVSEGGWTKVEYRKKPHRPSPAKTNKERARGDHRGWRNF

OSR1 (OXSR1) = biological target: T6, OSR1 (OXSR1) (Homo sapiens, UniProt O95747); settings: for remaining binding at 0.05 µM: read-out: Percent control (50 nM); for remaining binding at 0.2 µM: read-out: Percent control (200 nM); for remaining binding at 1 µM: read-out: Percent control (1000 nM); for remaining binding at 10 µM: read-out: Percent control (10 μM)
T6 construct: purchased KINOMEscan (DiscoveRx), San Diego, CA
T6 sequence (O95747 whole entry): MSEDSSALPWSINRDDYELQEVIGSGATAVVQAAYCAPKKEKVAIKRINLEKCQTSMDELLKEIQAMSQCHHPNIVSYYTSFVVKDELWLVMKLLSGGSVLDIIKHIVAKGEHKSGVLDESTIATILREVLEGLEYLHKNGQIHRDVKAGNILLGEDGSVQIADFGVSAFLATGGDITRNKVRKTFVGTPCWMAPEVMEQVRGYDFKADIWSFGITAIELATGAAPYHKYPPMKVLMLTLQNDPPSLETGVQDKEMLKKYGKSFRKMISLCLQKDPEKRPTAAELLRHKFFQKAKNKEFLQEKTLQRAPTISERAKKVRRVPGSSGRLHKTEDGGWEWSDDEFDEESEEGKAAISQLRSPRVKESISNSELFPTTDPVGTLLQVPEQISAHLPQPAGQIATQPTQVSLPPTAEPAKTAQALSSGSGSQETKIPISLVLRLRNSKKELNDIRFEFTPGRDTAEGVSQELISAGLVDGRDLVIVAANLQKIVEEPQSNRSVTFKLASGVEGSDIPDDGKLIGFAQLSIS

MEK6 (MAP2K6) = biological target: T7, MEK6 (MAP2K6) (Homo sapiens, UniProt P52564); settings: for remaining binding at 0.05 µM: read-out: Percent control (50 nM); for remaining binding at 0.2 µM: read-out: Percent control (200 nM); for remaining binding at 1 µM: read-out: Percent control (1000 nM); for remaining binding at 10 µM: read-out: Percent control (10 μM)
T7 construct: purchased KINOMEscan (DiscoveRx), San Diego, CA
T7 sequence (P52564 whole entry): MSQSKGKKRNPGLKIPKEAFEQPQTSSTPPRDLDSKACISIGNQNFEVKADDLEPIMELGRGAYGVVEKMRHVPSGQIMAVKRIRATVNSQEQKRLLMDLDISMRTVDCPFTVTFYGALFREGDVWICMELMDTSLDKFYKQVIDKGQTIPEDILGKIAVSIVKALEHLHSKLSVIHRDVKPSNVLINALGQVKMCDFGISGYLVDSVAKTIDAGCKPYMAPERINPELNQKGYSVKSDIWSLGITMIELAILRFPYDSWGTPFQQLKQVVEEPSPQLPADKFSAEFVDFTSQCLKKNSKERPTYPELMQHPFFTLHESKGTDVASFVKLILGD

[1] = estimated Kd, averaged pointwise estimates, transformed Hill equation, read-out: Calculated estimate of IC50

Compound: CCCS(=O)(=O)Nc1ccc(F)c(C(=O)c2c[nH]c3ncc(Cl)cc23)c1F [PLX4720]
- IC50 (TAOK1; [1]): 7.53 µM
- remaining binding at 0.05 µM (TAOK1; read-out: Percent control (50 nM)): 87%
- remaining binding at 0.2 µM (TAOK1): 94%
- remaining binding at 1 µM (TAOK1): 89%
- remaining binding at 10 µM (TAOK1): 65%
- remaining binding at 0.05 µM (MAP3K15): 94%
- remaining binding at 0.2 µM (MAP3K15): 97%
- remaining binding at 1 µM (MAP3K15): 91%
- remaining binding at 10 µM (MAP3K15): 59%
- remaining binding at 0.05 µM (HPK1 (MAP4K1)): 100%
- remaining binding at 0.2 µM (HPK1 (MAP4K1)): 100%
- remaining binding at 1 µM (HPK1 (MAP4K1)): 100%
- remaining binding at 10 µM (HPK1 (MAP4K1)): 47%
- remaining binding at 0.05 µM (TAK1 (MAP3K7)): 90%
- remaining binding at 0.2 µM (TAK1 (MAP3K7)): 88%
- remaining binding at 1 µM (TAK1 (MAP3K7)): 85%
- remaining binding at 10 µM (TAK1 (MAP3K7)): 49%
- remaining binding at 0.05 µM (ZAK): 20%
- remaining binding at 0.2 µM (ZAK): 4%
- remaining binding at 1 µM (ZAK): 0.7%
- remaining binding at 10 µM (ZAK): 0.1%
- remaining binding at 0.05 µM (OSR1 (OXSR1)): 100%
- remaining binding at 0.2 µM (OSR1 (OXSR1)): 94%
- remaining binding at 1 µM (OSR1 (OXSR1)): 95%
- remaining binding at 10 µM (OSR1 (OXSR1)): 42%
- remaining binding at 0.05 µM (MEK6 (MAP2K6)): 82%
- remaining binding at 0.2 µM (MEK6 (MAP2K6)): 100%
- remaining binding at 1 µM (MEK6 (MAP2K6)): 100%
- remaining binding at 10 µM (MEK6 (MAP2K6)): 47%

Compound: CCCS(=O)(=O)Nc1ccc(F)c(C(=O)c2c[nH]c3ncc(-c4ccc(Cl)cc4)cc23)c1F [vemurafenib]
- remaining binding at 0.2 µM (TAOK1): 100%
- remaining binding at 1 µM (TAOK1): 97%
- remaining binding at 10 µM (TAOK1): 79%
- remaining binding at 0.05 µM (MAP3K15): 84%
- remaining binding at 0.2 µM (MAP3K15): 100%
- remaining binding at 1 µM (MAP3K15): 84%
- remaining binding at 10 µM (MAP3K15): 91%
- remaining binding at 0.05 µM (HPK1 (MAP4K1)): 95%
- remaining binding at 0.2 µM (HPK1 (MAP4K1)): 88%
- remaining binding at 1 µM (HPK1 (MAP4K1)): 67%
- remaining binding at 10 µM (HPK1 (MAP4K1)): 15%
- remaining binding at 0.05 µM (TAK1 (MAP3K7)): 93%
- remaining binding at 0.2 µM (TAK1 (MAP3K7)): 88%
- remaining binding at 1 µM (TAK1 (MAP3K7)): 86%
- remaining binding at 10 µM (TAK1 (MAP3K7)): 88%
- IC50 (ZAK; [1]): < 0.05 µM
- remaining binding at 0.05 µM (ZAK): 9%
- remaining binding at 0.2 µM (ZAK): 1.8%
- remaining binding at 1 µM (ZAK): 0.25%
- remaining binding at 10 µM (ZAK): 0.05%
- remaining binding at 0.05 µM (OSR1 (OXSR1)): 100%
- remaining binding at 0.2 µM (OSR1 (OXSR1)): 100%
- remaining binding at 1 µM (OSR1 (OXSR1)): 89%
- remaining binding at 10 µM (OSR1 (OXSR1)): 98%
- IC50 (MEK6 (MAP2K6); [1]): 4.08 µM
- remaining binding at 0.05 µM (MEK6 (MAP2K6)): 91%
- remaining binding at 0.2 µM (MEK6 (MAP2K6)): 97%
- remaining binding at 1 µM (MEK6 (MAP2K6)): 87%
- remaining binding at 10 µM (MEK6 (MAP2K6)): 21%
